For the assay, the system named is Plasmopara viticola. The experiment in a line: Activity against Peronospora of grapevines caused by Plasmopara viticola (protective spray test on potted vines). As to conditions: individual active compound, untreated control 70% infection. In kind it is in vivo, cultivar Müller-Thurgau. How it is done: The active compounds, separately or jointly, were prepared as a 10% emulsion in a mixture of 63% by weight of cyclohexanone and 27% by weight of emulsifier and diluted with water to the desired concentration.
Evaluation was carried out by determining the infected leaf areas in percent. These percentages were converted into efficacies. The efficacy (E) is calculated as follows using Abbot's formula: E=(1α/β)·100 • α corresponds to the fungicidal infection of the treated plants in % and • β corresponds to the fungicidal infection of the untreated (control) plants in %
An efficacy of 0 means that the infection level of the treated plants corresponds to that of the untreated control plants; an efficacy of 100 means that the treated plants were not infected.
The expected efficacies of the mixtures of active compounds are determined using Colby's formula [R. S. Colby, Weeds 15, 20-22 (1967)] and compared with the observed efficacies.
Colby's formula: E=x+y−x·y/100 • E expected efficacy, expressed in % of the untreated control, when using the mixture of the active compounds A and B at the concentrations a and b • x efficacy, expressed in % of the untreated control, when using active compound A at the concentration a • y efficacy, expressed in % of the untreated control, when using active compound B at the concentration b
Leaves of potted vines of the cultivar “Müller-Thurgau” were sprayed to runoff point with an aqueous suspension having the concentration of active compound stated below. The suspension or emulsion was prepared from a stock solution comprising 10% of active compound in a mixture consisting of 70% of cyclohexanone, 20% of wetting agent and 10% of emulsifier. The next day, the undersides of the leaves were inoculated with an aqueous zoospore suspension of Plasmopara viticola. The grapevines were then initially placed in a water-vapor-saturated chamber at 24° C. for 48 hours and then in a greenhouse at 20-30° C. for 5 days. After this period of time, the plants were again placed in a humid chamber for 16 hours to promote sporangiophore eruption. The extent of the development of the disease on the undersides of the leaves was then determined visually.

The structures appear in SMILES notation.

Turning to `CC1CCN(c2c(-c3c(F)cc(F)cc3F)c(Cl)nc3ncnn23)CC1` [I, 5-chloro-7-(4-methylpiperidin-1-yl)-6-(2,4,6-trifluorophenyl)-[1,2,4]triazolo[1,5-a]-pyrimidine], the “Efficacy in % of the untreated control” value was determined as 0% (0.25 ppm in the spray liquor), 0% (1 ppm in the spray liquor) and 29% (4 ppm in the spray liquor).
`COC(=O)N(OC)c1ccccc1COc1ccn(-c2ccc(Cl)cc2)n1` [II-6, pyraclostrobin, reference compound]: under “1 ppm in the spray liquor”, the “Efficacy in % of the untreated control” value came out at 29%.

Source of the values: patent publication US20050288309A1, “Fungicidal mixtures” (priority 2002, published 2005).
